From PMC4929832 (Nature, 2016)

Experiments:
[1] = target: AKT2 (Homo sapiens, UniProt P31751); assay: kinase panel; format: biochemical
[2] = target: FYN (Homo sapiens, UniProt P06241); assay: kinase panel; format: biochemical
[3] = target: RON (Homo sapiens, UniProt Q04912); assay: kinase panel; format: biochemical
[4] = target: GRK3 (Homo sapiens, UniProt P35626); assay: kinase panel; format: biochemical
[5] = target: GRK5 (Homo sapiens, UniProt P34947); assay: kinase panel; format: biochemical
[6] = target: GRK6 (Homo sapiens, UniProt P43250); assay: kinase panel; format: biochemical
[7] = target: PDGFR-BETA (Homo sapiens, UniProt P09619); assay: kinase panel; format: biochemical
[8] = target: CLK2 (Homo sapiens, UniProt P49760); assay: kinase panel; format: biochemical
[9] = target: RSK4 (Homo sapiens, UniProt Q9UK32); assay: kinase panel; format: biochemical
[10] = target: PHK-GAMMA2 (Homo sapiens, UniProt P15735); assay: kinase panel; format: biochemical
[11] = target: MET (Homo sapiens, UniProt P08581); assay: kinase panel; format: biochemical
[12] = target: AURORA-C (Homo sapiens, UniProt Q9UQB9); assay: kinase panel; format: biochemical
[13] = target: DCAMKL2 (Homo sapiens, UniProt Q8N568); assay: kinase panel; format: biochemical
[14] = target: AXL (Homo sapiens, UniProt P30530); assay: kinase panel; format: biochemical
[15] = target: PKACB (Homo sapiens, UniProt P22694); assay: kinase panel; format: biochemical
[16] = target: BTK (Homo sapiens, UniProt Q06187); assay: kinase panel; format: biochemical
[17] = target: SYK (Homo sapiens, UniProt P43405); assay: kinase panel; format: biochemical
[18] = target: EPH-A3 (Homo sapiens, UniProt P29320); assay: kinase panel; format: biochemical
[19] = target: PKC-IOTA (Homo sapiens, UniProt P41743); assay: kinase panel; format: biochemical
[20] = target: EPH-A5 (Homo sapiens, UniProt P54756); assay: kinase panel; format: biochemical
[21] = target: EPH-B1 (Homo sapiens, UniProt P54762); assay: kinase panel; format: biochemical
[22] = target: CAMK4 (Homo sapiens, UniProt Q16566); assay: kinase panel; format: biochemical
[23] = target: NEK2 (Homo sapiens, UniProt P51955); assay: kinase panel; format: biochemical
[24] = target: TNIK (Homo sapiens, UniProt Q9UKE5); assay: kinase panel; format: biochemical
[25] = target: EPH-B4 (Homo sapiens, UniProt P54760); assay: kinase panel; format: biochemical
[26] = target: KIT (Homo sapiens, UniProt P10721); assay: kinase panel; format: biochemical
[27] = target: P38-ALPHA (Homo sapiens, UniProt Q16539); assay: kinase panel; format: biochemical
[28] = target: CDK5 (Homo sapiens, UniProt Q00535); assay: kinase panel; format: biochemical
[29] = target: CDK7 (Homo sapiens, UniProt P50613); assay: kinase panel; format: biochemical
[30] = target: LTK (Homo sapiens, UniProt P29376); assay: kinase panel; format: biochemical
[31] = target: PRKX (Homo sapiens, UniProt P51817); assay: kinase panel; format: biochemical
[32] = target: PTK5 (Homo sapiens, UniProt P42685); assay: kinase panel; format: biochemical
[33] = target: FLT-1 (Homo sapiens, UniProt P17948); assay: kinase panel; format: biochemical
[34] = tested on: CK1; assay: kinase panel; format: biochemical; conditions: CK1, 1 μM
[35] = target: PAK3 (Homo sapiens, UniProt O75914); assay: kinase panel; format: biochemical
[36] = target: H1 receptor (Homo sapiens, UniProt P35367); assay: H1 receptor calcium assay; format: cell-based
[37] = target: PPARgamma Receptor (Homo sapiens, UniProt P37231); assay: PPARgamma Receptor antagonist assay; format: cell-based
[38] = target: Progesterone Receptor (Homo sapiens, UniProt P06401); assay: Progesterone Receptor antagonist assay; format: cell-based

Chain of CAMK4 (Q16566 whole entry): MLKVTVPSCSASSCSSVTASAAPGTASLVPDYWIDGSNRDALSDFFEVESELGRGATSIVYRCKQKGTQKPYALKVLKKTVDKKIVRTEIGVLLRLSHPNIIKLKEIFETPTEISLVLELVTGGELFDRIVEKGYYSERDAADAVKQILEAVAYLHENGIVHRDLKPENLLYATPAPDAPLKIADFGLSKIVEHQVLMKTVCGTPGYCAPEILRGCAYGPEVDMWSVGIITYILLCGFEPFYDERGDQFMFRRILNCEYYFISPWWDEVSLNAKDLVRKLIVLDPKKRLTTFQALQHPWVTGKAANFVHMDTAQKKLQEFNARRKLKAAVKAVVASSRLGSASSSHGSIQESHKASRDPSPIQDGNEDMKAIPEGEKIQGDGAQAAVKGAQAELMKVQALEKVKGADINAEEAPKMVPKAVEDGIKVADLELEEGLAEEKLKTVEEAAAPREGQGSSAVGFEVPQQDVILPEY
Chain of CDK7 (P50613 whole entry): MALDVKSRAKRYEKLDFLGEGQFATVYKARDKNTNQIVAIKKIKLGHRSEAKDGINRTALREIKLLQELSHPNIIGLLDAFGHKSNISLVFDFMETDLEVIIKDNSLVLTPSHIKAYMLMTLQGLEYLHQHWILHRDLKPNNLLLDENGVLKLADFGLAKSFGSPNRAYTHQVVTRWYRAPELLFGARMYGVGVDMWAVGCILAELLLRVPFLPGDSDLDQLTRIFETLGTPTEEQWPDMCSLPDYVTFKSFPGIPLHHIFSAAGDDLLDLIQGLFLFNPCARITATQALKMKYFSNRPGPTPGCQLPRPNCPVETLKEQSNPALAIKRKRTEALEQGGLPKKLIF
Chain of CDK7 (P51946 whole entry partner): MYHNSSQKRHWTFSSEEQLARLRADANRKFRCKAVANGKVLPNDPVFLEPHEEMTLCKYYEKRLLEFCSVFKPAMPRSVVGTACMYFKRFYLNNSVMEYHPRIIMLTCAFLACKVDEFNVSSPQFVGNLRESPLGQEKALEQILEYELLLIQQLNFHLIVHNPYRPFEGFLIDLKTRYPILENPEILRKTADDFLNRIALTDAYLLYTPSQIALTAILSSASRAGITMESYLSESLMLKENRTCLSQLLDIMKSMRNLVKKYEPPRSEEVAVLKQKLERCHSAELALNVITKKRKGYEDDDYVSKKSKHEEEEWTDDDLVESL
Chain of CDK7 (P51948 whole entry partner): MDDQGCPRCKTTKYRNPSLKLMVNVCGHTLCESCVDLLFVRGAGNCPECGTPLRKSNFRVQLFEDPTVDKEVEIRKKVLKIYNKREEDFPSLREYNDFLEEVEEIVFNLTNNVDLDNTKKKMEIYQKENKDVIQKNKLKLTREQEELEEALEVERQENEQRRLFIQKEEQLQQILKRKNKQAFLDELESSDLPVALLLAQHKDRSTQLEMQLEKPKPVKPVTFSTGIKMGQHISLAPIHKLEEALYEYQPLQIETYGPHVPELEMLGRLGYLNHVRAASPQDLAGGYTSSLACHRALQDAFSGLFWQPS
Chain of LTK (P29376 17-864): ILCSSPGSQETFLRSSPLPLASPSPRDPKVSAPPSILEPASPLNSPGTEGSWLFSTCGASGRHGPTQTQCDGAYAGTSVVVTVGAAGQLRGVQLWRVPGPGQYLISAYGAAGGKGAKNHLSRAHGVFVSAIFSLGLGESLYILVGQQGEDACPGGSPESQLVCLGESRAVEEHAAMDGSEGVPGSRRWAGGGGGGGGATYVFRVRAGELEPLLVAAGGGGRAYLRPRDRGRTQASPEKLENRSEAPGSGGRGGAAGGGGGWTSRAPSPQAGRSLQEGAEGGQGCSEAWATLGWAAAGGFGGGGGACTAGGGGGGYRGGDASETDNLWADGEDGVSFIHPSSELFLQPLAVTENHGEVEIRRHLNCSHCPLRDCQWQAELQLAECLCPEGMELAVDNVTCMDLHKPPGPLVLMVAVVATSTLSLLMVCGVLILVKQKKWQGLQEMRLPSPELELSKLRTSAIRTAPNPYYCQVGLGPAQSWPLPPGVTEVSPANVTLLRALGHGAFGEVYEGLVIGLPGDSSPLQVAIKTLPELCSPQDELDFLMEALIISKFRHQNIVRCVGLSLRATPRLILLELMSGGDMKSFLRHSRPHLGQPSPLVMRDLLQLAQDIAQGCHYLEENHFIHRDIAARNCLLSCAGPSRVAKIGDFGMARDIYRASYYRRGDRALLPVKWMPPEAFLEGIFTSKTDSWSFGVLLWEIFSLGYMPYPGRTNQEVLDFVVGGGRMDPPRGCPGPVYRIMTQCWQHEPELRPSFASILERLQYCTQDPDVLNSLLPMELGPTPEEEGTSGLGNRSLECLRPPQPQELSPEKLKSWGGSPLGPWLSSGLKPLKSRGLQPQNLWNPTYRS
Chain of CLK2 (P49760 whole entry): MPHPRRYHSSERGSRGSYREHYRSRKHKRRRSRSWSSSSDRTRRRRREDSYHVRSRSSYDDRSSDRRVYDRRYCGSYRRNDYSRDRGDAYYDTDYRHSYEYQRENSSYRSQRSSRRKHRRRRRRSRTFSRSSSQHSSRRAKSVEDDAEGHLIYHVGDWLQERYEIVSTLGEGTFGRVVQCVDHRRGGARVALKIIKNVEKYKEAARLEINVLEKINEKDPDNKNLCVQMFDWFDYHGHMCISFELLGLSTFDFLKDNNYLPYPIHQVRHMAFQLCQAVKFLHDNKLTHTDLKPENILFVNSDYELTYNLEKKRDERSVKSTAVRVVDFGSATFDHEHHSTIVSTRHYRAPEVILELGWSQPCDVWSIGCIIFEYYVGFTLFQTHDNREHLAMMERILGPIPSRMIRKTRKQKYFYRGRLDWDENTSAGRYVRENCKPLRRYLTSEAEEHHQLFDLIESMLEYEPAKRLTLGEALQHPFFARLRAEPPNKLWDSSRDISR
Chain of GRK3 (P35626 whole entry): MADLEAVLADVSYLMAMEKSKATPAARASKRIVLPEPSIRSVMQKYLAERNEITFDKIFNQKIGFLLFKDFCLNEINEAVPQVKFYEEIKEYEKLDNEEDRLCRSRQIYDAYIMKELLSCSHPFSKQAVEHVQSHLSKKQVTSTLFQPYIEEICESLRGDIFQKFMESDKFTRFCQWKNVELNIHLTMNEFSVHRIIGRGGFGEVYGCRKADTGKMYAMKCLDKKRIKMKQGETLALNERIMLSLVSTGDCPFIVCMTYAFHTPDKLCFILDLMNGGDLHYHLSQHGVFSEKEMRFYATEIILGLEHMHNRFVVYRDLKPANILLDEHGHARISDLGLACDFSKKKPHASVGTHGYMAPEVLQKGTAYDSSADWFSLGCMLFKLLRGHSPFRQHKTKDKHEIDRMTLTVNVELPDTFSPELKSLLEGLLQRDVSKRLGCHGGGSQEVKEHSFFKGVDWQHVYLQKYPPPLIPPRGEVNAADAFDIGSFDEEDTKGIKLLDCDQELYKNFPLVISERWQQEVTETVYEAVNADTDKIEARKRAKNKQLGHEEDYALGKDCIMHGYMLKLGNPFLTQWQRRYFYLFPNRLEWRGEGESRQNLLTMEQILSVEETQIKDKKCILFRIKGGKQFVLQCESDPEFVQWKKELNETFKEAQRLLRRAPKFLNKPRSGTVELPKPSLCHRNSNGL
Chain of PTK5 (P42685 whole entry): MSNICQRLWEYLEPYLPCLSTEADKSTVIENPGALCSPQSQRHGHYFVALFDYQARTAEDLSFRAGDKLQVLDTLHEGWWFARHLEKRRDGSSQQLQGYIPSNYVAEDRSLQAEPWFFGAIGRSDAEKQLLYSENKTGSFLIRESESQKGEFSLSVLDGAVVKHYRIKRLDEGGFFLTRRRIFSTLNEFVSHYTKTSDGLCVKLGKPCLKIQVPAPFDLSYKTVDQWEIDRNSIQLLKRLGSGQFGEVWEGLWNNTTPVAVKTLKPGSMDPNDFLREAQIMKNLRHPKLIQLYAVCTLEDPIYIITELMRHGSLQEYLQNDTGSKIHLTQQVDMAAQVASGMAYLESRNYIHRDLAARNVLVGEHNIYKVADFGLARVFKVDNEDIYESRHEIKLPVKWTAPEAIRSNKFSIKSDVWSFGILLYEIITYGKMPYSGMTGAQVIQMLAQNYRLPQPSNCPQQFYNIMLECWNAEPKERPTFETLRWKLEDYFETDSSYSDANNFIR
Chain of H1 receptor (P35367 whole entry): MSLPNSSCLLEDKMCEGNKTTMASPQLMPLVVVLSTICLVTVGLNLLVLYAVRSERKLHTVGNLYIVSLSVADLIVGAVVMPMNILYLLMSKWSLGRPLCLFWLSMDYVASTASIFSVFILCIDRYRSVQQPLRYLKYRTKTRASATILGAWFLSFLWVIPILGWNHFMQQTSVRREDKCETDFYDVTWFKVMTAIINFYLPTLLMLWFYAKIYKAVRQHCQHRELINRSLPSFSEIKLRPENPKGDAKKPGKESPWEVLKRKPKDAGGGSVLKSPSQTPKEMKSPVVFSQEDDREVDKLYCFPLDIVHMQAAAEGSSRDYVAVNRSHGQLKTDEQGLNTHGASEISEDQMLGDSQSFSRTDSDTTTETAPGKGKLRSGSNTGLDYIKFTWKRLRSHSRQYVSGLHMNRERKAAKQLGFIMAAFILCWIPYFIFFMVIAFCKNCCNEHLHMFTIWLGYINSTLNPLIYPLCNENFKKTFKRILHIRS
Chain of AKT2 (P31751 whole entry): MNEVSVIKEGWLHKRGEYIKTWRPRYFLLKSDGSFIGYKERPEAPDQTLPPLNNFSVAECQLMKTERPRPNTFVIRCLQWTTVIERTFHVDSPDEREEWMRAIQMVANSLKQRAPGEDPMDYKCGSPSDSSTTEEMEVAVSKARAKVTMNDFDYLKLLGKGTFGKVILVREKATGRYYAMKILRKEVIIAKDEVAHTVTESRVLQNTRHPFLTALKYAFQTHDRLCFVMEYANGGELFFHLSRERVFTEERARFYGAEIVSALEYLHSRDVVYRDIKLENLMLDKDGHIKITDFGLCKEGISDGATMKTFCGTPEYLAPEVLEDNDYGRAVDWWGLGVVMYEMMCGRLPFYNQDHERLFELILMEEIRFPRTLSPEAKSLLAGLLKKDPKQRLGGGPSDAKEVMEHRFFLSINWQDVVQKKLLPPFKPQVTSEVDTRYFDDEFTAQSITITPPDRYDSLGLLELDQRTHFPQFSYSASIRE

inhibition at 1 µM [1]: 0% | inhibition at 1 µM [2]: 0% | inhibition at 1 µM [3]: 0% | inhibition at 1 µM [4]: 0% | inhibition at 1 µM [5]: 0% | inhibition at 1 µM [6]: 0% | inhibition at 1 µM [7]: 4% | inhibition at 1 µM [8]: 1% | inhibition at 1 µM [9]: 0% | inhibition at 1 µM [10]: 0% | inhibition at 1 µM [11]: 0% | inhibition at 1 µM [12]: 0% | inhibition at 1 µM [13]: 0% | inhibition at 1 µM [14]: 4% | inhibition at 1 µM [15]: 0% | inhibition at 1 µM [16]: 0% | inhibition at 1 µM [17]: 0% | inhibition at 1 µM [18]: 1% | inhibition at 1 µM [19]: 0% | inhibition at 1 µM [20]: 4% | inhibition at 1 µM [21]: 0% | inhibition at 1 µM [22]: 1% | inhibition at 1 µM [23]: 2% | inhibition at 1 µM [24]: 0% | inhibition at 1 µM [25]: 0% | inhibition at 1 µM [26]: 0% | inhibition at 1 µM [27]: 0% | inhibition at 1 µM [28]: 0% | inhibition at 1 µM [29]: 0% | inhibition at 1 µM [30]: 1% | inhibition at 1 µM [31]: 3% | inhibition at 1 µM [32]: 0% | inhibition at 1 µM [33]: 8% | % inhibition [34]: 0% | inhibition at 1 µM [35]: 0% | IC50 [36]: > 30 µM | IC50 [37]: > 30 µM | IC50 [38]: > 30 µM
Structure (SMILES): O=C(Nc1nccs1)C(c1cc(F)ccc1O)N1Cc2ccccc2C1=O (centres unmarked) [EAI045, 2-(5-fluoro-2-hydroxyphenyl)-2-(1-oxo-2,3-dihydro-1H-isoindol-2-yl)-N-(1,3-thiazol-2-yl)acetamide]
